Data on 13 compounds can be found in ChEMBL document CHEMBL1201862, “PubChem BioAssay data set” (2004).

Test [1] relates to HeLa. The test can be described thus: HeLa cell cytotoxicity, dose response, cytotoxicity control for MITF activator project, CellTiter-Glo luminescence, cherry-pick samples (AID 540259). It is filed as functional, cell-based. As to conditions: Homo sapiens.
The target of test [2] is T1, Carboxy-terminal domain RNA polymerase II polypeptide A small phosphatase 1 (Homo sapiens, UniProt Q9GZU7).
T1 sequence (Q9GZU7 whole entry): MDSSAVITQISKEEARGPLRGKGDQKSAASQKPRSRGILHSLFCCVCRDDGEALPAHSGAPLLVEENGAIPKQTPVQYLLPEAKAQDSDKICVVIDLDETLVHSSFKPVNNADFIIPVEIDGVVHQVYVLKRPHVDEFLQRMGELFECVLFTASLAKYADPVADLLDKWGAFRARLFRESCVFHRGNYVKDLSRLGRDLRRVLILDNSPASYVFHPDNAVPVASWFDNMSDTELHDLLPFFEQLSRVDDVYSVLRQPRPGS
The test can be described thus: inhibitors of CTDSP1, concentration-response testing, biochemical assay, absorbance-based, actives from ultra-high-throughput screening (AID 540297). It is filed as functional.

Test [3] concerns the target T2, Probable nicotinate-nucleotide adenylyltransferase (Staphylococcus aureus (strain N315), UniProt P65502). Format: functional, Staphylococcus aureus subsp. aureus N315.
The target of test [4] is T2, Probable nicotinate-nucleotide adenylyltransferase. Format: functional, Staphylococcus aureus subsp. aureus N315. As to conditions: read-out: IC50_Mean.
Test [5] concerns INS1. The test can be described thus: beta cell apoptosis inhibitors, cytokine rescue, dose response, luminescence, retest (AID 449756).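 Further: cell death triggered by IL-1 beta plus TNF-alpha plus IFN-gamma mixture; protective hits raise ATP signal compared with cytokine alone wells.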 It is filed as functional, cell-based. As to conditions: Rattus norvegicus.
In test [6] the target is Protein Wnt-3a (Mus musculus, UniProt P27467). The test can be described thus: Wnt3a-driven reporter signaling inhibition, dose response, selectivity assay for Gli-SUFU antagonist project, Wnt-LIGHT cells, luminescence (AID 651570).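 Further: Wnt-LIGHT reporter cells stimulated with conditioned medium from Wnt3a-producing cells.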 Format: functional. As to conditions: read-out: IC50_Mean.
Test [7] has as its target T3, High affinity choline transporter 1 (Homo sapiens, UniProt Q9GZV3).
T3 sequence (Q9GZV3 whole entry): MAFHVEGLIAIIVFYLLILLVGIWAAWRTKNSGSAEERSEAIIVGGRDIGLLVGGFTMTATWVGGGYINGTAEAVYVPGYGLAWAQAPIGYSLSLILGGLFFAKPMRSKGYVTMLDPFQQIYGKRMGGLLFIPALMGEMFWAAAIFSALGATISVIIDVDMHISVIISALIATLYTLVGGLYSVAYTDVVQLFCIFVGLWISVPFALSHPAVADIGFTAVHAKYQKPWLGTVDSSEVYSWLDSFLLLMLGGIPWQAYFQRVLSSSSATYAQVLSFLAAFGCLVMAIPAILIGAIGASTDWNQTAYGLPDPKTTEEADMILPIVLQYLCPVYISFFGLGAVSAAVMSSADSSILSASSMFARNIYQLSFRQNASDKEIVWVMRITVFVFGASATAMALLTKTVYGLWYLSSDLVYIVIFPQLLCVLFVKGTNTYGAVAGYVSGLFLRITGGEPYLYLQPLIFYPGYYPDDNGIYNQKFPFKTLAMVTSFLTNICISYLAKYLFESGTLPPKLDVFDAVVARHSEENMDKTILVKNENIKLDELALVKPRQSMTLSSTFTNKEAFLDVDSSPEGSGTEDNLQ
The test can be described thus: CHT inhibitors, dose response, cell-based, 5-point CRC, membrane potential dye (AID 504840). It is filed as functional.

The target of test [8] is T3, High affinity choline transporter 1. The test can be described thus: CHT inhibitors, dose response, cell-based, 10-point CRC, membrane potential dye (AID 588401).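 Further: membrane potential dye fluorescence of choline-evoked depolarization via CHT.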 It is filed as functional.
The nature of test [9]: HEp-2 cell cytotoxicity, dose response, cytotoxicity control for RSV inhibitor project, HTS (AID 2410). As to conditions: human respiratory syncytial virus. Format: functional.
A short description of test [10]: Luminescence Cell-Based Dose Confirmation HTS to Identify Activators of 5'UTR Stem-Loop Driven Alpha-Synuclein mRNA Translation in H4 Neuroglioblastoma Cells. [Related pubchem assays: 1829 (Project Summary), 1814 (Primary HTS)]. Format: functional.
Test [11] is described as follows: Luminescence Cell-Based Dose Response HTS to Identify Activators of Luciferase Translation or Activity in H4 […] Cells. [Related pubchem assays: 1829 (Project Summary), 1814 (Primary HTS)]. It is filed as functional.
The test system of test [12] is H4. The test can be described thus: Luminescence Cell-Based Dose Response HTS to Identify Activators of 5'UTR Stem-Loop Driven Prion Protein mRNA Translation in H4 Neuroglioblastoma Cells. [Related pubchem assays: 1829 (Project Summary), 1814 (Primary HTS)]. Conditions: Homo sapiens. It is filed as functional.
Test [13] concerns the target T4, Rac GTPase-activating protein 1 (Homo sapiens, UniProt Q9H0H5).
T4 sequence (Q9H0H5 whole entry): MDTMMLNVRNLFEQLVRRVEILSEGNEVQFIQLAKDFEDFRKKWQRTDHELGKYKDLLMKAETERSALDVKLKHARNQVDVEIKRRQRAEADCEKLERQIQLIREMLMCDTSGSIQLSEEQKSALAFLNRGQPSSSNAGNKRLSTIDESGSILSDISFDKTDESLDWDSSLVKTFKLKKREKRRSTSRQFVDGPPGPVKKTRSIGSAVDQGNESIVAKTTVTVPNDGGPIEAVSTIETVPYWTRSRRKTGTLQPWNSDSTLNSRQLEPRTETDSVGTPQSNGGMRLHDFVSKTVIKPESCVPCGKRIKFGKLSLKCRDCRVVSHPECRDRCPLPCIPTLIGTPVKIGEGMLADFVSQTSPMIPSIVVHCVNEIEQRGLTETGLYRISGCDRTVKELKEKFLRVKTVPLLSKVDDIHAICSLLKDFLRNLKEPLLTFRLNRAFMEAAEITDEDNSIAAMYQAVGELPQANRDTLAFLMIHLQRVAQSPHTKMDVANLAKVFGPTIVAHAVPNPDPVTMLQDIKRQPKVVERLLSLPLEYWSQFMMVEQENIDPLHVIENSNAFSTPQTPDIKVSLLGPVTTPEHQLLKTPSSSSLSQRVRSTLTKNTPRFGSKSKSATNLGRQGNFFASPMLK
The test can be described thus: MgcRacGAP GTPase-activating activity inhibitors, confirmation, biochemical, ADP Hunter fluorescence, primary and confirmatory (AID 624330). Format: functional.

A short description of test [14]: HeLa cell cytotoxicity, dose response, cytotoxicity control for MgcRacGAP inhibitor project (AID 624300). It is filed as functional.
In test [15] the target is T5, Small ubiquitin-related modifier 1 (Homo sapiens, UniProt P63165). The test can be described thus: inhibitors of SUMO1 peptide binding, dose response, biochemical, fluorescence polarization, uHTS hits (AID 624382). It is filed as functional. Conditions: read-out: IC50_Mean. For orientation: Fluorescence polarisation rises when a labelled molecule tumbles more slowly, as on binding a larger partner.

The target of test [16] is T5, Small ubiquitin-related modifier 1. The test can be described thus: inhibitors of SUMO1 partner interactions, dose response, biochemical, FRET (AID 624383). It is filed as functional. As to conditions: read-out: IC50_Mean.
The subject of test [17] is Vero. The test can be described thus: cells. It is filed as functional, cell-based. Conditions: Chlorocebus sabaeus.
Test [18] is described as follows: cells.
Test [19] addresses T6, Microphthalmia-associated transcription factor (Homo sapiens, UniProt O75030).
T6 sequence (O75030 whole entry): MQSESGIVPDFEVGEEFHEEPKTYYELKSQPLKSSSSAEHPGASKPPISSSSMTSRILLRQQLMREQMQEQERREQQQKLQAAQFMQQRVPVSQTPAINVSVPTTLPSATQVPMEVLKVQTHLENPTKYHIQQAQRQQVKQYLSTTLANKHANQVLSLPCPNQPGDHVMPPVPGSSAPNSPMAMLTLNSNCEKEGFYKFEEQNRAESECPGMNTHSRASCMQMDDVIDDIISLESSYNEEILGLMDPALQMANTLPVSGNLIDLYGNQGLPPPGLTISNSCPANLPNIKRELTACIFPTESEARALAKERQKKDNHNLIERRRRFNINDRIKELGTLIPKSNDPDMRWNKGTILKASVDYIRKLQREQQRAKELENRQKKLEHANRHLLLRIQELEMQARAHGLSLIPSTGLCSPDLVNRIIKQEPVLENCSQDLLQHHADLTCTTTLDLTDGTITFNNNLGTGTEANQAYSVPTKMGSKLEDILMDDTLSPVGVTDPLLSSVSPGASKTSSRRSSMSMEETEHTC
The test can be described thus: TRPM1 promoter luciferase signal decrease, dose response, MITF inhibitor project, cell-based, SK-MEL-5, cherry-picked, set 3 (AID 493073).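 Further: SK-MEL-5 melanoma cells with luciferase driven by the MITF target TRPM1 promoter.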 Format: functional.

Test [20] concerns Vero. The test can be described thus: cells. As to conditions: Chlorocebus sabaeus. Format: functional.

The structures appear in SMILES notation. Calls of active or inactive are those of the source.

T5 sequence (P63165 whole entry): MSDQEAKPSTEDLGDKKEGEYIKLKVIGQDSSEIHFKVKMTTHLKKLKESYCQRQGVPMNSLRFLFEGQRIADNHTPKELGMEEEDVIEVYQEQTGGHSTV
T2 sequence (P65502 whole entry): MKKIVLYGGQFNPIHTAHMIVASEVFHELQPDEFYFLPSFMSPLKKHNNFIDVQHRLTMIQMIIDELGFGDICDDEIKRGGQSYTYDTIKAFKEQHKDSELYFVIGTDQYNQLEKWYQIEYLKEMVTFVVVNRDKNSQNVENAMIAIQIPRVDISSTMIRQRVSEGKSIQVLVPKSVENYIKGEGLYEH
Chain of Protein Wnt-3a (P27467 whole entry): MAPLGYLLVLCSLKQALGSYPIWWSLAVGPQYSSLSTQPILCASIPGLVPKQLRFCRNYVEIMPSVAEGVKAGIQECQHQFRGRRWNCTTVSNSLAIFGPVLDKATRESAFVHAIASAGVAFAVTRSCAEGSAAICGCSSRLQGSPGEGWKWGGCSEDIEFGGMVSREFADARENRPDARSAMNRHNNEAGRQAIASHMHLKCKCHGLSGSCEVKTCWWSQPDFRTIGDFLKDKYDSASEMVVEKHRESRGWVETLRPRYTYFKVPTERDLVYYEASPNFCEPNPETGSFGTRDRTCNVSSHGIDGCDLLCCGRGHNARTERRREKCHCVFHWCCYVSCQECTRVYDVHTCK

`CCNc1nc(N)nc(Oc2ccc(C(=O)OC)cc2)n1`: the AC50 (commonly the concentration giving half of the maximal activity seen) in [1] was 245 µM (active).
Take `C[C@@H]1CN([C@H](C)CO)C(=O)c2cc(NC(=O)c3ccncc3)ccc2O[C@@H]1CN(C)C(=O)Nc1ccccc1`: the IC50 in test [2] was 12.8 µM (active); in test [3] it was 26.9 µM (active); in test [4] it was 35.2 µM (active).
Take `CCCCSc1nc2sc3c(c2c(=O)n1-c1ccc(C)cc1)CCN(C)C3`: the AC50 in test [5] is 10.1 µM (active). Moreover, in test [6], the IC50 was 10.8 µM (active).
On to `COc1cccc(CCNC(=O)c2ccc(OC)c(OC3CCN(C(C)C)CC3)c2)c1`, for which the IC50 in [7] is 5 µM (active); in test [8], 3.98 µM (active).
As for `COc1ccccc1N1CCN(C2=Nc3cccc4cccc2c34)CC1`, the CC50 (usually the concentration at which the toxic effect on the cells reaches its halfway point) in [9] was 25.4 µM (active). In addition, the EC50 (commonly the concentration at which the effect is half-maximal) in test [10] is 43.3 µM (active); in test [11] it was 19.1 µM (active); in [12], 18.5 µM (active). Besides, the AC50 in test [1] was 27.1 µM (active).
As for `O=C(Nc1ccc(N2CCCC2)cc1)c1cc(Br)ccc1Cl`, the IC50 in [3] is 21.7 µM (active); in test [4], 35.9 µM (active).
Consider `Oc1ccc(N=Nc2ccccc2)cc1`, for which the AC50 in test [1] is 98.1 µM (active). In addition, in [13], the IC50 was 70.9 µM (active).
For the compound `Cn1c(-c2ccc(Cl)cc2)cnc1NCc1cc2c(cc1[N+](=O)[O-])OCO2`, the CC50 in test [14] is 100 µM (active). Also, in [13], the IC50 was 73.5 µM (active).
Take `COc1ccc(C(=O)Nc2nc3cc4c(cc3s2)OCCO4)c(OC)c1`: the IC50 is > 66.6 µM (inactive) in test [15] and 2.77 µM (active) in test [16].
As for `O=C(COC(=O)CCC(=O)c1ccc(F)cc1)Nc1ccc2[nH]c(O)nc2c1`, the values for the IC50 in [15] and in [16] were > 66.6 µM (inactive) and 17.6 µM (active), respectively.
Take `Cc1ccc(S(=O)(=O)Nc2ccc(Nc3nccn4c(-c5cccc(OC(F)(F)F)c5)cnc34)cc2)cc1`: the IC50 is 16.2 µM (active) in test [3] and 27.2 µM (active) in test [4].
Turning to `C/C(N)=C(/C#N)C(=O)COC(=O)c1cc(C)n(-c2ccc(F)cc2)c1C`, the CC50 in test [9] was 18.8 µM (active). In addition, the results for the IC50 in [17] and in [18] were 8.93 µM (active) and 29.9 µM (active), respectively.
As to `CCCN1CCC(NCc2cn(C)nc2-c2ccc(Oc3ccccc3)cc2)CC1`, the half-maximal activity concentration (AC50) in test [19] was 8.35 µM (active). Besides, the IC50 in [17] was 23.1 µM (active). In addition, the CC50 in [20] is > 25 µM (active).
